Assay results from ChEMBL document CHEMBL6127071, “Albusamides A-G: Hydroxylated Fatty Amine Derivatives from the Deep-Sea-Derived Actinomycete Streptomyces albus 228DD-066 and Their Cytotoxic Activity” (2024).
Structures can show the parent of a compound that is named as a salt.

Columns and labels:
Assay type in all cases: functional
[1] = system: RPMI 8402; test: Growth inhibition of human RPMI 8402 cells assessed as reduction in cell viability measured after 48 hrs by SRB method
[2] = system: Raji; test: Growth inhibition of human Raji cells assessed as reduction in cell viability measured after 48 hrs by SRB method
[3] = system: U-266; test: Growth inhibition of human U-266 cells assessed as reduction in cell viability measured after 48 hrs by SRB method
[4] = system: HCT-15; test: Growth inhibition of human HCT-15 cells assessed as reduction in cell viability measured after 48 hrs by SRB method
[5] = system: HL-60; test: Growth inhibition of human HL-60 cells assessed as reduction in cell viability measured after 48 hrs by SRB method
[6] = system: NCI-H23; test: Growth inhibition of human NCI-H23 cells assessed as reduction in cell viability measured after 48 hrs by SRB method
[7] = system: K562; test: Growth inhibition of human K562 cells assessed as reduction in cell viability measured after 48 hrs by SRB method
[8] = system: PC-3; test: Growth inhibition of human PC-3 cells assessed as reduction in cell viability measured after 48 hrs by SRB method
[9] = Growth inhibition of human MRC9 cells assessed as reduction in cell viability measured after 48 hrs by SRB method
[10] = system: NALM-6; test: Growth inhibition of human NALM-6 cells assessed as reduction in cell viability measured after 48 hrs by SRB method
[11] = system: WSUDLCL2; test: Growth inhibition of human WSUDLCL2 cells assessed as reduction in cell viability measured after 48 hrs by SRB method
[12] = system: NUGC-3; test: Growth inhibition of human NUGC-3 cells assessed as reduction in cell viability measured after 48 hrs by SRB method
[13] = system: MDA-MB-231; test: Growth inhibition of human MDA-MB-231 cells assessed as reduction in cell viability measured after 48 hrs by SRB method
[14] = Growth inhibition of human RPMI-1788 cells assessed as reduction in cell viability measured after 48 hrs by SRB method
[15] = system: ACHN; test: Growth inhibition of human ACHN cells assessed as reduction in cell viability measured after 48 hrs by SRB method

Row | Structure (SMILES) | GI50 [2] [µM] | GI50 [4] [µM] | GI50 [5] [µM] | GI50 [6] [µM] | GI50 [7] [µM] | GI50 [8] [µM] | GI50 [13] [µM] | GI50 [15] [µM] | GI50 [1] [µM] | GI50 [3] [µM] | GI50 [9] [µM] | GI50 [10] [µM] | GI50 [11] [µM] | GI50 [12] [µM] | GI50 [14] [µM]
1 | CC(=O)NCCCCCCCCC[C@@H](O)[C@H](C)O | > 30 | 5.8 | > 30 | 7.2 | > 30 | 7.3 | 7.5 | 6.4 | > 30 | > 30 | 6.7 | > 30 | > 30 | 6.6 | 17
2 | CC(=O)CCCCCCCCCCNC(C)=O | > 30 | > 30 | > 30 | > 30 | > 30 | > 30 | > 30 | > 30 | > 30 | > 30 | > 30 | > 30 | > 30 | > 30 | > 30
3 | CCC(=O)CCCCCCCCCNC(C)=O | 19 | > 30 | > 30 | > 30 | > 30 | > 30 | > 30 | > 30 | > 30 | > 30 | > 30 | > 30 | > 30 | > 30 | > 30
4 | COc1cccc2c1C(=O)c1c(O)c3c(c(O)c1C2=O)C[C@@](O)(C(=O)CO)C[C@@H]3O[C@H]1C[C@H](N)[C@H](O)[C@H](C)O1 [DOXORUBICIN HYDROCHLORIDE] | 0.008 | 0.087 | 0.002 | 0.072 | 0.007 | 0.085 | 0.077 | 0.081 | 0.01 | 0.004 | 0.08 | 0.003 | 0.004 | 0.093 | 0.007
5 | CC(=O)NCCCCCCCCC[C@@H](O)[C@@H](C)O | > 30 | 2.1 | > 30 | 1.9 | > 30 | 1.7 | 2 | 1.6 | > 30 | > 30 | 2 | > 30 | 8.3 | 1.4 | 3.1
6 | CC(=O)CCCCCCCCNC(C)=O | 0.4 | 1.1 | 7.9 | 1 | 11 | 0.8 | 1.1 | 1.1 | 2.5 | > 30 | 1.1 | 9.2 | 0.8 | 0.7 | 0.4
7 | CC(=O)NCCCCCCCCCC(=O)CCO | > 30 | 15 | > 30 | 18 | > 30 | 19 | 18 | 16 | > 30 | > 30 | 20 | > 30 | > 30 | 17 | 28
8 | CC(=O)NCCCCCCCCCO | > 30 | 2.6 | 15 | 2.1 | 19 | 2 | 2.6 | 2.3 | 4.4 | > 30 | 2.8 | 18 | 1.3 | 1.5 | 0.5

More lines, main results first:

Row | GI50 [2] [µM] | GI50 [4] [µM] | GI50 [5] [µM] | GI50 [6] [µM] | GI50 [7] [µM] | GI50 [8] [µM] | GI50 [13] [µM] | GI50 [15] [µM] | Structure (SMILES) | GI50 [1] [µM] | GI50 [3] [µM] | GI50 [9] [µM] | GI50 [10] [µM] | GI50 [11] [µM] | GI50 [12] [µM] | GI50 [14] [µM]
9 | > 30 | 5.4 | > 30 | 4.6 | 28 | 5.5 | 4.6 | 5.8 | CC(=O)NCCCCCCCCC[C@@H](O)CCO | 25 | > 30 | 4 | > 30 | 5.6 | 3 | 2.9
10 | > 30 | 16 | > 30 | 22 | > 30 | 19 | 20 | 23 | CC(=O)NCCCCCCCCCC[C@@H](C)O | > 30 | > 30 | 19 | > 30 | > 30 | 19 | > 30
11 | 26 | 0.5 | 1.3 | 0.5 | 1.5 | 0.5 | 0.5 | 0.5 | CC(=O)NCCCCCCCCCC[C@H](O)CO | 0.6 | > 30 | 0.6 | 1.5 | 0.2 | 0.4 | 0.1
12 | > 30 | 4.6 | > 30 | 5.3 | > 30 | 5.1 | 4.7 | 5.7 | CC[C@@H](O)CCCCCCCCCNC(C)=O | > 30 | > 30 | 5.3 | > 30 | 14 | 3.9 | 4.7
